US11903386B2, “Strigolactone analogs and their usage in plant control” (King Abdullah University of Science and Technology, priority 2016, dated 2024)
Entries after “also recorded” stand apart in the source; their conditions may differ.

Columns and labels:
[1] = tested on: rice seedlings (Shiokari, d3, d10); assay: Growth and fresh biomass of hydroponically grown rice seedlings; format: in vivo; conditions: 2.5 μM, twice a week for three weeks
Description: Rice seeds (WT, d3, d10) were surface-sterilized by washing with 70% ethanol for 1 min and then with 2.5% sodium hypochlorite for 15 min. Seeds were then rinsed thoroughly with sterile MilliQ water and incubated in water for 2 days at 30° C. in the dark. Pre-germinated seeds were transferred to filter papers containing ½ strength MS medium in 90 mm petri dishes and incubated at 30° C. under fluorescent white light (130-180 μM m^−2 s^−1) for one week. Seven day-old seedlings were transferred to 50 ml falcon tubes (one seedling per tube) containing modified half-strength Hoagland nutrient solution and grown in greenhouse. Plants were treated with MPs at 2.5 μM-2.5×10-7 μM, using GR24 as positive control. The compounds were applied six times, twice a week. Number of tillers per plant, plant height and fresh biomass were measured at final harvest.

[2] = tested on: rice leaf segments; assay: Dark-induced leaf senescence of rice leaf segments; format: in vivo, O. sativa, var. Shiokari
Description: One week old rice (O. sativa, var. Shiokari) seedlings were established as mentioned above. Uniform seedlings were transferred to 50 ml tubes containing half strength Hoaglands nutrient solution for 7 days and grown in an incubator under white fluorescent light (130-180 μM m^−2 s^−1) with 16 h:8 h (L/D) at 28° C. for one week. Leaf segments of 2 cm were cut from middle part of third leaves of rice plants. Each segment was put in a well (in 24-well plates) containing 2 ml of 2.5 mM MES buffer with 0.05% Tween-20, and incubated at 30° C. in the dark for 7 days. After application of MPs, color change, chlorophyll content, ion leakage and gene expression were monitored daily for 7 days.

[3] = tested on: P. ramosa seeds; assay: P. ramosa seed germination bioassay; format: in vivo; conditions: 1.0 μM
Description: Parasitic weed seeds (S. hermonthica and P. ramosa) germination activity was recorded as described previously (Jamil et al., 2012). Six pre-conditioned seed discs were placed in a 90 mm petri-dish containing a filter paper ring wetted with 0.9 ml sterile MilliQ water. […] GR24 solutions with equal concentrations and sterile MilliQ water were included as a positive and negative control, respectively. After application, seeds were incubated at 30° C./25° C. in the dark for two days. Germination (seeds with radical emerging through seed coat) was scored under a binocular microscope, and germination rate (%) was calculated.

[4] = tested on: Arabidopsis seedlings; assay: Arabidopsis hypocotyl elongation assay; format: in vivo; conditions: 1.0 μM
Description: Sterilized Arabidopsis seeds were sown on half strength MS (with 0.5% sucrose+1% agar, 0.5 g L-1 MES, pH 5.7) plates supplemented with MPs or GR24 (at 1.0 μM). Plates were stored at 4° C. in darkness for 3 days. To initiate germination, plates were exposed to continuous white light for 24 h then transferred to continuous monochromatic red light (160 Lux, 22° C.) conditions for another 4 days. For hypocotyl length measurement, at least 30 seedlings were measured using the publically available ImageJ software (http://rsbweb.nih.gov/ij/) after taking digital photographs. Monochromatic red light source was applied as described previously (Wu and Yang, 2010). Light flow rates were measured using a Li250 quantum photometer (Li-Cor, Lincoln, NE, USA).

## COC(=O)/C(=C/OC1C=C(C)C(=O)O1)c1ccccc1 (racemic) [MP3, (E)-methyl 3-(4-methyl-5-oxo-2,5-dihydrofuran-2-yloxy)-2-phenylacrylate]
[1]
  Growth, senescence symptoms and biomass of rice seedlings: stunted the growth and caused senescence symptoms; also recorded: growth retardation and senescence
[2]; after 5 days of treatment
  Transcript levels of Senescence Associated Genes Osl20 and Osl295: more pronounced in MP3 treated samples
[2]; dark, leaf segments
  Change in leaf color, time relative to control: about two days earlier than the control
[2]; dark, leaf segments monitored 7 days
  Change in leaf color, day observed: already on the third day after treatment
[2]; first five days
  Ion leakage compared to the control: did not detect a difference
[2]; sixth and seventh day
  Ion leakage compared to the control: striking increase
[2]; third day
  Chlorophyll content: clear reduction

## COC(=O)/C(=C/OC1C=C(C)C(=O)O1)c1ccc([N+](=O)[O-])cc1 (racemic) [MP1, (E)-methyl 3-(4-methyl-5-oxo-2,5-dihydrofuran-2-yloxy)-2-(4-nitrophenyl)acrylate]
[3]
  P. ramosa seed germination activity: much higher activity; also recorded: quite similar to that of GR24

## COC(=O)/C(=C/OC1C=C(C)C(=O)O1)c1ccc(Cl)cc1 (stereo not drawn) [MP7]
[4]
  Inhibition of hypocotyl growth: stronger inhibitory effect than GR24
